Measured values taken from article PMC6099400, “A New Benzophenone C-Glucoside and Other Constituents of Pseuduvaria fragrans and Their α-Glucosidase Inhibitory Activity” (Molecules : A Journal of Synthetic Chemistry and Natural …, 2018).
Like-named read-outs stand apart in the source and are kept apart here.

Key:
[1] = molecular target: T1, Yeast α-glucosidase enzyme (Saccharomyces cerevisiae, UniProt P53341); assay: Kinetic study of α-glucosidase inhibition (Lineweaver-Burk and secondary plots); assay type: biochemical; conditions: for mode of enzyme inhibition: Lineweaver-Burk plots; for Slope: Lineweaver-Burk
Procedure: Lineweaver-Burk plots of the inverted values of velocity (1/V) versus the inverted values of substrate concentration (1/[S]) were prepared. […] To determine the Ki of each amide, we constructed a secondary plot by replotting the reciprocal of Km (1/Km) against inhibitor concentration.
Vacuum liquid chromatography (VLC) and column chromatography (CC) were performed on silica gel 60 (40–63 μm, Merck, Darmstadt, Germany), silica gel 60 (63–200 μm, Merck, Darmstadt, Germany) or Sephadex LH-20 (Pharmacia, Piscataway, NJ, USA) or Diaion HP20 (Mitsubishi Chemical, Tokyo, Japan). For preparative HPLC, a Shim-pack Prep-ODS (No.2025820) column (Shimadzu, Tokyo, Japan), with isocratic 50% methanol in water, SPD-10A UV-Vis detector (Shimadzu, Tokyo, Japan), and flow rate 1 mL/min, was used. NMR spectra were obtained with a Bruker Avance DPX-300 FT-NMR spectrometer (Brucker Corporation, Billerica, MA, USA). High-resolution electrospray ionization mass spectra (HR-ESI-MS) were recorded with a Bruker micro TOF mass spectrometer (Bruker Daltonics, Billerica, MA, USA). Optical rotations were obtained with a PerkinElmer 341 polarimeter (PerkinElmer, Boston, MA, USA). UV spectra were measured on an Agilent Technologies Cary 60 UV-Vis (Agilent, Santa Clara, CA, USA), and IR spectra (Agilent, Santa Clara, CA, USA) were recorded on a Perkin-Elmer FT-IR 1760x spectrophotometer (PerkinElmer, Boston, MA, USA). […] Absorbance in 96-well plates was measured using a microplate reader (Wallac1420 Multilevel counter, Victor3, PerkinElmer).
The kinetic assay of enzyme inhibition was done in a 96-well plate. The enzyme kinetics parameters (Km and Vmax) were obtained by analyzing the double reciprocal Lineweaver-Burk plot (1/V vs. 1/[S]). Each experiment was carried out by varying the concentration of pNPG (2.0, 1.0, 0.5, 0.25, 0.125 mM) in the absence and presence of different concentrations of the test sample. The reaction was monitored at 405 nm by a microplate reader every 5 min for a total time of 30 min. Each experiment was performed in triplicate. […] The inhibition constant (Ki) of each compound was then calculated from the intersection on the abscissa.

[2] = molecular target: T1, Yeast α-glucosidase enzyme; conditions: earlier report; cited from earlier work

T1 sequence (P53341 whole entry): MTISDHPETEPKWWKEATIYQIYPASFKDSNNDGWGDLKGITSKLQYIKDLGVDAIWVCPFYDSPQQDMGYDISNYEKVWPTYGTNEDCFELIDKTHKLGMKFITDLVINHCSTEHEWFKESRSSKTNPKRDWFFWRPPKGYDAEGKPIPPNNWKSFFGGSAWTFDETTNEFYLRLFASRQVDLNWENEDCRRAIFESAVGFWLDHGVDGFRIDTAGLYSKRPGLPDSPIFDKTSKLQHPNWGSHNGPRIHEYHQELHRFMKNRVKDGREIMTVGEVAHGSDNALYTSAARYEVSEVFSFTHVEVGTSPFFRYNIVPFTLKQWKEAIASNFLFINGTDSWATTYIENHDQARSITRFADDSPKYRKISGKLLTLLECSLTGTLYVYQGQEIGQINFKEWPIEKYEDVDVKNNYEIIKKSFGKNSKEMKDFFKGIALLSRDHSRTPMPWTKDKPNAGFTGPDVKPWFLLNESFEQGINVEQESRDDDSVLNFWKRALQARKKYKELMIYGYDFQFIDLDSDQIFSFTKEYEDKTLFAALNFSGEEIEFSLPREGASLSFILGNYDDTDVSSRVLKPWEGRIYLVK

| Slope ([1]; inhibitor dose 4.0 µM) | Slope ([1]; inhibitor dose 8.0 µM) | Vmax ([1]; inhibitor dose 4.0 µM) | Vmax ([1]; inhibitor dose 8.0 µM) | SMILES | mode of enzyme inhibition [1] | Slope ([1]; inhibitor dose 0.5 µM) | Slope ([1]; inhibitor dose 1.0 µM) | Slope ([1]; inhibitor dose 2.0 µM) | Vmax ([1]; inhibitor dose 0.5 µM) | Vmax ([1]; inhibitor dose 1.0 µM) | Vmax ([1]; inhibitor dose 2.0 µM) | mode of enzyme inhibition [2] |
| --- | --- | --- | --- | --- | --- | --- | --- | --- | --- | --- | --- | --- |
|  |  |  |  | O=C(/C=C/c1ccc(O)cc1)NCCc1ccc(O)cc1 [Compound 6, N-trans-coumaroyltyramine] | uncompetitive inhibitors | 34.55 | 34.67 | 35.56 | 0.0077 ΔA405/min | 0.0030 ΔA405/min | 0.0018 ΔA405/min | uncompetitive α-glucosidase inhibition |
| 37.56 | 36.51 | 0.0044 ΔA405/min | 0.0027 ΔA405/min | COc1cc(/C=C/C(=O)NCCc2ccc(O)cc2)ccc1O [Compound 7, N-trans-feruloyltyramine] | uncompetitive inhibitors |  |  | 36.62 |  |  | 0.0072 ΔA405/min |  |
|  |  |  |  | C[C@H]1O[C@H](O[C@H]2[C@H](O)[C@@H](O)[C@@H](O[C@H]3[C@H](O)[C@@H](O)C(O)O[C@@H]3CO)O[C@@H]2CO)[C@H](O)[C@@H](O)[C@@H]1N[C@H]1C=C(CO)[C@@H](O)[C@H](O)[C@H]1O (stereo partly shown) [acarbose, reference compound] | competitive inhibition |  |  |  |  |  |  |  |
